Values quoted from earlier work in US20180116952A1, “ORAL PHARMACEUTICAL COMPOSITION OF METHYL[…] METHODS OF USE THEREOF” (Lupin Atlantis Holdings SA, priority 2015, published 2018).

System: patients with drug-induced refractory headache
Conditions: 60 consecutive patients with drug-induced refractory headache

## CCC(CO)NC(=O)[C@@H]1C=C2c3cccc4[nH]cc(c34)C[C@H]2N(C)C1.O=C(O)/C=C\C(=O)O (stereo partly shown) [methylergonovine, methylergonovine maleate]
  patients in whom methylergonovine was effective: 73%
